The subject of series [1] is hypoxia-inducible endogenous VEGF expression. The experiment in a line: Hypoxia-inducible endogenous VEGF expression ELISA in HeLa cells, dose-response EC50 (Table 3). In kind it is cell-based. The conditions noted are these: Homo sapiens, hypoxic conditions (1% O2), VEGF ELISA of conditioned media. As for the experimental part: The ability of the Compounds to modulate hypoxia-inducible endogenous VEGF expression may be analyzed as follows. VEGF protein levels may be monitored by an ELISA assay (R&D Systems). Briefly, HeLa cells may be cultured for 24-48 hours under hypoxic conditions (1% O2, 5% CO2, balanced with nitrogen) in the presence or absence of a Compound. The conditioned media may then be assayed by ELISA, and the concentration of VEGF calculated from the standard ELISA curve of each assay.
A dose-response analysis may be performed using the ELISA assay and conditions described above. The conditions for the dose-response ELISA are analogous to those described above. A series of, e.g., seven different concentrations may be analyzed. In parallel, a dose-response cytotoxicity assay may be performed using Cell Titer Glo (Promega) under the same conditions as the ELISA to ensure that the inhibition of VEGF expression was not due to the cytotoxicity.
On the technique in general: In an ELISA, binding on a coated surface is turned into a signal by an enzyme label.

The subject of series [2] is soluble VEGF isoforms. The experiment in a line: ELISA of soluble VEGF production in nontransformed keratinocytes under hypoxia or normoxia. In kind it is cell-based, human. The conditions noted are these: normoxic, 72 hours. The procedure:
Experimental Design. Nontransformed normal human keratinocyte cell cultures were established under normoxic conditions (21% oxygen). […] At the completion of treatment, cells were assessed for viability with an ATP assay and conditioned media were evaluated for VEGF protein levels by ELISA (as described in Section 9.1.1.1).

For series [3], the system named is soluble VEGF121 and VEGF165 isoforms. Briefly: ELISA of soluble VEGF production in multiple human tumor cell lines (EC50). In kind it is cell-based. The following applies: 18 human tumor cell lines. The procedure: Study Design. […] In these experiments, cultures were established under normoxic conditions (21% oxygen). […] Cells requiring induction of VEGF production were incubated under hypoxic conditions (1% oxygen). At the completion of treatment, the conditioned media were collected and assayed by ELISA (as described in Section 9.1.1.1) for soluble VEGF121 and VEGF165 isoforms; results were calculated as percentage inhibition relative to vehicle treated controls. EC50 values were calculated from the dose concentration response curves.

The subject of series [4] is HT1080 xenografts. The experiment in a line: Dose response assessment in nude mice bearing HT1080 xenografts (tumor and plasma human VEGF, tumor size, trough plasma level). In kind it is in vivo, athymic nude mice. The procedure:
Experimental Study Design. HT1080 cells (5×10^6 cells/mouse) were implanted subcutaneously in male athymic nude mice.
Tumor size was measured using calipers at periodic intervals during the study (data shown in Section 9.2.2). […] Mice were sacrificed, and excised tumors were homogenized in buffer containing protease inhibitors. Both terminal intratumoral and pathologic plasma human VEGF levels were measured using an ELISA that recognizes human VEGF121 and VEGF165 (as described in Section 9.1.1.1). Intratumoral VEGF levels were normalized to the total tumor protein concentration, while pathologic plasma human VEGF levels were expressed in pg/mL of plasma.
Experimental Design. The experimental design was reported in Section 9.1.2.2.
(In general: A xenograft is tissue or cells of one species grown in another, often human tumour cells in immunodeficient mice.)

The nature of series [5]: Quantitative whole-body autoradiography tissue distribution of 14C-Compound #10. In kind it is in vivo. The conditions noted are these: rats, single oral 50 mg/kg.
Protocol: For the QWBA, the carcasses were prepared by immediately freezing them, embedding them in chilled carboxymethylcellulose, and freezing them into blocks. Appropriate cryomicrotome sections of the blocks at 40 μm thickness were collected on adhesive tape. Mounted sections were tightly wrapped and exposed on phosphorimaging screens along with plastic embedded autoradiographic standards. Exposed screens were scanned and the autoradiographic standard image data were sampled to create a calibrated standard curve. Specified tissues, organs, and fluids were analyzed.
The subject of series [6] is HT1080 cells. Briefly: Kinetics of S-phase transit by BrdU incorporation in HT1080 cells. Type of series: cell-based, human. The following applies: HT1080, 18-hour treatment. As for the experimental part:
Experimental Design. HT 1080 cells are exposed to BrdU (bromodeoxyuridine, a synthetic nucleoside that is an analogue of thymidine and is incorporated into DNA during the S phase of cell division) (FITC BrdU Flow Kit, BD Pharmingen catalog #552598). Cells are grown and treated as described in Section 9.3.1.3 above with the exception that one hour prior to harvesting by trypsinization, BrdU (final concentration 1 μM) is added to each culture for 1 hour. Cells actively replicating DNA during this brief time incorporate the BrdU into the DNA, which can then be quantitated. BrdU content is quantitated with using the FITC BrdU Flow Kit as instructed by the manufacturer. The process includes fixation (paraformaldehyde) and DNA staining with 7-AAD (7-amino-actinomycin D) followed by incubation with a fluoro-tagged anti-BrdU antibody that specifically recognizes BrdU incorporated into DNA. Dual channel FACS analysis permits assessment of both the DNA content of individual cells and the rate of transit across the S-phase, which is assessed based upon BrdU incorporation over the one hour treatment period.
In general terms: Dividing cells build labelled thymidine or BrdU into new DNA.

A short description of series [7]: Functional observation battery, 7 days oral gavage. In kind it is in vivo, Sprague Dawley rats. The conditions noted are these: 40, 120, and 400 mg/kg daily oral gavage.
A short description of series [8]: Cardiovascular safety pharmacology study in awake telemeterized dogs. In kind it is in vivo, beagle dogs. The conditions noted are these: single oral doses of 30, 60, and 120 mg/kg, male dogs.
Series [9] in a line: ECG and blood pressure assessments in 7-day and 28-day dog toxicity studies. Type of series: in vivo, beagle dogs.
Series [10] deals with T1, CYPC19 (Homo sapiens, UniProt P33261).
T1 construct: host or cells: human hepatic microsomes or human recombinant isoenzymes
Briefly: CYP inhibition in human hepatic microsomes or recombinant isoenzymes: CYPC19. Type of series: in vitro ADME. An excerpt:
It is possible that in certain clinical trial subjects, such agents may need to be adjusted for dosing or replaced by alternative agents that are not metabolized by CYP2D6, particularly when such agents may have a low therapeutic index.

Series [11] is described as follows: 7-day oral toxicity study in rats. The following applies: Sprague Dawley, rat, in vivo; for NOAEL at 7 days: oral gavage. As for the experimental part: A battery of genotoxicity studies was also performed. […] The L23 vehicle was used.
Maximal exposures occurred at a dose of 120 mg/kg/day.

Series [12] is described as follows: 7-day oral toxicity study in dogs. In kind it is in vivo.
In series [13] the test system is physiological VEGF-A. The experiment in a line: Phase 1 study in healthy volunteers: plasma and serum physiological VEGF-A concentrations. Type of series: in vivo, human. The conditions noted are these: any dose tested. The procedure:
The study was performed under the oversight of the French health authorities. The study was not performed under an IND.
Plasma VEGF Concentrations: Plasma and serum VEGF concentrations and concentration changes from baseline were presented descriptively.

Structures are written as SMILES. Some results are limits rather than exact numbers.

T1 sequence (P33261 whole entry): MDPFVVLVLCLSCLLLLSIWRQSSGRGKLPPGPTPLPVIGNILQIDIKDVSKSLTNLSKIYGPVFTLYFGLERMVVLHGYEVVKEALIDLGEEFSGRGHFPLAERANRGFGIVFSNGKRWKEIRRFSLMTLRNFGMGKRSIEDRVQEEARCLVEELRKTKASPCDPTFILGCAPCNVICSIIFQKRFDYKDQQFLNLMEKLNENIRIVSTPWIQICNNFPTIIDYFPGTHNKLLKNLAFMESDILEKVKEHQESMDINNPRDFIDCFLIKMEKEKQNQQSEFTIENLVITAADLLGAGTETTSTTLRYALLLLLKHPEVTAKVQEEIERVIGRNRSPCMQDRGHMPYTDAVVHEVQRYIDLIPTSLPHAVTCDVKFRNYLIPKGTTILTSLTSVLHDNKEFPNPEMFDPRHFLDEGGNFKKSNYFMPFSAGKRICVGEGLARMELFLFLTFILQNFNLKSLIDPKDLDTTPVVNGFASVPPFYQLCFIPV

Usually EC50 stands for the concentration giving half of the maximal effect. A low value points to an effect from little substance. The NOAEL is the highest dose or exposure tested at which no adverse effect was seen. For `COc1ccc(C2c3[nH]c4ccc(Cl)cc4c3CCN2C(=O)Oc2ccc(Cl)cc2)cc1` (racemic) [Compound #10], the half-maximal effective concentration (EC50) in series [1] was below 8 nM. The “decrease in VEGF concentrations in conditioned media” value in [2] is given as 21%. Also, in series [3], the “EC50 values for cell lines showing VEGF inhibition (in words)” value was “low nanomolar range”. Also, the “pathologic human VEGF levels in tumors and in plasma (in words)” value in [4] (all Compound #10 dose groups (0.3 to 10 mg/kg oral), 18 days) is recorded as “significantly suppressed”. Besides, in series [4] (all dose levels of >=1 mg/kg BID), the “human VEGF reductions (in words)” value was “essentially maximal”. For the same compound, the “antitumor activity, tumor size over time (in words)” value in series [4] (dose levels of >=1 mg/kg BID) is given as “maximum antitumor activity”. Further, in series [4] (suboptimal dose of 0.3 mg/kg BID), the “tumor and pathologic plasma human VEGF concentrations (in words)” value is given as “partial reductions”. The “blood-brain barrier penetration (in words)” value in series [5] is “penetrates the blood-brain barrier”. Also, the signs of toxicity entry in series [5] is “no overt signs of toxicity”. Moreover, in series [6], the “BrdU incorporation by individual cells during the one-hour period vs DMSO control (in words)” value is reported as “incorporated less BrdU”. The “percentage of cells residing in S-phase (in words)” value in series [6] (increasing doses) is reported as “net increase”. Further, the “behavioral or neurological effects (functional observation battery)” value in [7] is on record as “no adverse behavioral or neurological effects”. In addition, the “cardiovascular or electrocardiographic (including QT interval) parameters” value in series [8] was “no meaningful changes”. Further, the QTc values result in [9] (males, 60 mg/kg/day, 28-day study) is given as “comparable to controls”. The “ECG or blood pressure results” value in series [9] (through 120 mg/kg/day for 7-days and through 60 mg/kg/day for 28-days, oral) is reported as “did not have any toxicological effects”. Moreover, the “inhibition of CYPC19 (in words)” value in [10] is “No meaningful inhibition”. Moreover, in [11] (7 days), the “dose at which maximal exposures occurred” value stood at 120 mg/kg/day. Moreover, the no-observed-adverse-effect level (NOAEL) at 7 days in [11] (female, read-out: NOAEL for 7-days, female rats) was determined as 120 mg/kg/day; in series [11] (male, read-out: NOAEL for 7-days, male rats), 40 mg/kg/day; in [12] (both sexes, beagle, dog, in vivo, dogs, oral capsules), 60 mg/kg/day. The “dose at which exposures were maximal” value in series [12] (dogs, 10, 30, or 60 mg/kg/dose BID, 7 days) is given as 30 mg/kg/dose BID. Besides, in [12] (dogs, males and females, 10, 30, or 60 mg/kg/dose BID, 7 days), the treatment-related clinical finding entry is “increased incidence and frequency of soft stools”. Besides, the “NOAEL for 7-days” value in series [12] (dogs, oral capsules) is given as 30 mg/kg/dose BID. In addition, the “plasma or serum physiological VEGF-A concentrations” value in series [13] is given as “No significant alterations”.

The values are drawn from patent US8697662B2, “Methods for treating Kaposi sarcoma” (PTC Therapeutics, Inc., priority 2009, dated 2014).
